#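 1) Cells in 96-well plates. 2) Compound, 48 h, 5 concentrations. 3) Linear interpolation between surrounding doses. 4) Unreached endpoint = highest concentration. GI50 = concentration required for 50% inhibition of growth.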 Active and inactive are the calls of the source. No stated cut-off is given here; in the data, active = GI50 up to about 1.1 µM and inactive = higher.
# Columns and labels:
# Assay in all cases: NCI anticancer screen, dose series, 48 h
# MCF7 = test system: MCF7
# U-251 = test system: U-251
# SN12C = test system: SN12C
# EKVX = test system: EKVX
# T47D = test system: T47D
# NCI/ADR-RES = test system: NCI/ADR-RES
# M14 = test system: M14
# NCI-H226 = test system: NCI-H226
# CAKI-1 = test system: CAKI-1
# COLO 205 = test system: COLO 205
# UO-31 = test system: UO-31
# UACC-257 = test system: UACC-257
# LOX IMVI = test system: LOX IMVI
# Malme-3M = test system: Malme-3M
# TK-10 = test system: TK-10
# HCT-15 = test system: HCT-15
# Hs-578T = test system: Hs-578T
# SK-OV-3 = test system: SK-OV-3
# SNB-75 = test system: SNB-75
# OVCAR-8 = test system: OVCAR-8
Structure (SMILES),GI50 (MCF7),GI50 (U-251),GI50 (SN12C),GI50 (EKVX),GI50 (T47D),GI50 (NCI/ADR-RES),GI50 (M14),GI50 (NCI-H226),GI50 (CAKI-1),GI50 (COLO 205),GI50 (UO-31),GI50 (UACC-257),GI50 (LOX IMVI),GI50 (Malme-3M),GI50 (TK-10),GI50 (HCT-15),GI50 (Hs-578T),GI50 (SK-OV-3),GI50 (SNB-75),GI50 (OVCAR-8)
O=C(C=P(c1ccccc1)(c1ccccc1)c1ccccc1)c1ccc(-c2ccc(F)cc2F)cc1,2.55 µM (inactive),3.41 µM (inactive),2.31 µM (inactive),3.17 µM (inactive),2.33 µM (inactive),3.09 µM (inactive),2.42 µM (inactive),2.43 µM (inactive),2.12 µM (inactive),1.64 µM (inactive),1.77 µM (inactive),2.72 µM (inactive),2 µM (inactive),2.72 µM (inactive),2.2 µM (inactive),2.29 µM,3.97 µM (inactive),2.83 µM (inactive),–,–
Cc1ccc(S(=O)(=O)N2CCCSCCSCCCN(S(=O)(=O)c3ccc(C)cc3)CC2)cc1,> 100 µM (inactive),> 100 µM (inactive),> 100 µM (inactive),> 100 µM (inactive),57.8 µM (inactive),> 100 µM (inactive),> 100 µM (inactive),> 100 µM (inactive),–,> 100 µM (inactive),> 100 µM (inactive),> 100 µM (inactive),–,–,> 100 µM (inactive),> 100 µM,> 100 µM (inactive),> 100 µM (inactive),> 100 µM (inactive),> 100 µM (inactive)
CC(=O)c1cccc(Nc2c3ccccc3nc3occc23)c1,3.94 µM (inactive),5.16 µM (inactive),8.38 µM (inactive),25.6 µM (inactive),5.14 µM (inactive),2.51 µM (inactive),4.3 µM (inactive),10.8 µM (inactive),2.48 µM (inactive),11.7 µM (inactive),12.5 µM (inactive),11.3 µM (inactive),5.04 µM (inactive),4.9 µM (inactive),16.2 µM (inactive),3.99 µM,5.15 µM (inactive),10.6 µM (inactive),–,15.3 µM (inactive)
C(=N\Nc1nnc(-c2nnc(N/N=C/c3ccccc3)o2)o1)/c1ccccc1,> 10 µM (inactive),> 10 µM (inactive),> 10 µM (inactive),> 10 µM (inactive),> 10 µM (inactive),> 10 µM (inactive),> 10 µM (inactive),> 10 µM (inactive),> 10 µM (inactive),> 10 µM (inactive),> 10 µM (inactive),> 10 µM (inactive),–,> 10 µM (inactive),> 10 µM (inactive),> 10 µM,6.19 µM (inactive),–,–,> 10 µM (inactive)
CC1CCOc2ccc(cc2)/C=N\c2ccc(cc2)CCc2ccc(cc2)/N=C\c2ccc(cc2)OCC1,> 100 µM (inactive),> 100 µM (inactive),> 100 µM (inactive),> 100 µM (inactive),–,> 100 µM (inactive),> 100 µM (inactive),> 100 µM (inactive),> 100 µM (inactive),> 100 µM (inactive),> 100 µM (inactive),> 100 µM (inactive),> 100 µM (inactive),> 100 µM (inactive),–,> 100 µM,> 100 µM (inactive),–,24.1 µM (inactive),> 100 µM (inactive)
Cc1nnc2n1N=C(c1ccccc1)/C(=C/c1ccc(-c3ccc(Cl)cc3)o1)S2,2.11 µM (inactive),12.1 µM (inactive),15.6 µM (inactive),20 µM (inactive),5.22 µM (inactive),–,17.9 µM (inactive),14.3 µM (inactive),15.1 µM (inactive),25.2 µM (inactive),12.8 µM (inactive),16.6 µM (inactive),–,17.3 µM (inactive),13.4 µM (inactive),8.53 µM,54.3 µM (inactive),32.1 µM (inactive),–,–
Nc1ncnc2c1ncn2C1OC(CO)C(O)C(O)C1O (stereo unspecified),> 100 µM (inactive),> 100 µM (inactive),> 100 µM (inactive),> 100 µM (inactive),–,> 100 µM (inactive),> 100 µM (inactive),> 100 µM (inactive),> 100 µM (inactive),> 100 µM (inactive),> 100 µM (inactive),> 100 µM (inactive),> 100 µM (inactive),> 100 µM (inactive),> 100 µM (inactive),> 100 µM,> 100 µM (inactive),–,> 100 µM (inactive),> 100 µM (inactive)
CN(C)Cc1ccc(-c2cc3onc(-c4ccccc4)c3c(=O)n2C)cc1,41.2 µM (inactive),22 µM (inactive),55.6 µM (inactive),> 100 µM (inactive),20 µM (inactive),41.5 µM (inactive),15.1 µM (inactive),> 100 µM (inactive),85.3 µM (inactive),20 µM (inactive),11.6 µM (inactive),18.3 µM (inactive),17.9 µM (inactive),29 µM (inactive),24.1 µM (inactive),20.5 µM,19.6 µM (inactive),48.8 µM (inactive),–,47.5 µM (inactive)

# Source: ChEMBL document CHEMBL1201862, “PubChem BioAssay data set” (2004)
